Assay results: publication PMC7938888, “Antidepressant drugs act by directly binding to TRKB neurotrophin receptors” (Cell, 2021)

Experiments:
TRKA = target: T1, TRKA (Homo sapiens, UniProt P04629); experiment: Cell-free ligand binding assay, TRKA from MG87 cells; conditions: compared to TRKB
T1 construct: expressed in transfected cells; host or cells: MG87.TRKA (NIH 3T3 mouse fibroblasts stably expressing TRKA)

TRKB [1] = target: T2, TRKB (Mus musculus, UniProt P15209); experiment: Cell-free ligand binding assay on immobilised TRKB from HEK293T lysates; parameters: wild-type GFP-tagged full length TRKB or the GFP-tagged Y433F TRKB mutant; host or cells: HEK293T; conditions: read-out: Kd of biotinylated FLX binding to immunoprecipitated TRKB; biotinylated ligand 0-100 μM
T2 sequence (P15209 32-821): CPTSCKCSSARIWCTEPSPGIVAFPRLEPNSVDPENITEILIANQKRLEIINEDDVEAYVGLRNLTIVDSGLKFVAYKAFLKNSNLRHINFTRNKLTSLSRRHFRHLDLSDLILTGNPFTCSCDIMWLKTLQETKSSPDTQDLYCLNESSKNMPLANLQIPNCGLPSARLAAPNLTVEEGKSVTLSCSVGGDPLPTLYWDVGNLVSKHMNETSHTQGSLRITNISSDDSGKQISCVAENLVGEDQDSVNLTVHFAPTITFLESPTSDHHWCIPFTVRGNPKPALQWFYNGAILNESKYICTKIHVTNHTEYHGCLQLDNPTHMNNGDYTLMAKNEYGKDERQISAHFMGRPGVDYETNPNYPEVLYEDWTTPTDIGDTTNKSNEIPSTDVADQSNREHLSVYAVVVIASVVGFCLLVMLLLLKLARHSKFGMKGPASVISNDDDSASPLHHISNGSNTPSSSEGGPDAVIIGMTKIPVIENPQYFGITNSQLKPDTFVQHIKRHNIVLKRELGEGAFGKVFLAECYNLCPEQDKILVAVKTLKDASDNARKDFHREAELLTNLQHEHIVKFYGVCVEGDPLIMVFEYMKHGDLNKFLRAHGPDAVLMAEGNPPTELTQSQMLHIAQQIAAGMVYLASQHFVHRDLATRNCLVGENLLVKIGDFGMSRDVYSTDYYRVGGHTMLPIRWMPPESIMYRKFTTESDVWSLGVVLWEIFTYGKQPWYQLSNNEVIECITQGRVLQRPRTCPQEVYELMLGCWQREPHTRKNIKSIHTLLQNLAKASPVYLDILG
Procedure: The cell-free assays (binding assays) were performed in white 96-well plates, based on the protocol used for western-blotting or ELISA ([Baeza-Raja et al., 2016]; [Das et al., 2015]). The plates were precoated with anti-GFP, anti-FLAG, anti-TRK or anti-TRKB antibody (1:1000) in carbonate buffer (pH 9.8), ON at 4°C. Following blocking with 3% BSA in PBS buffer (2 h at RT), 120 ug of total protein from each sample (of lysates from HEK293T cells transfected to overexpress GFP-TRKB.wt or GFP-TRKB.Y433F) were added and incubated overnight at 4°C under agitation. […] The luminescence was determined via HRP-conjugated streptavidin (1:10000, 1h, RT) activity reaction with ECL by a plate reader. The luminescence signal from blank wells (containing all the reagents but the sample lystates, substituted by the blocking buffer) was used as background. The specific signal was then calculated by subtracting the values of blank wells from the values of the samples with matched concentration of the biotinylated ligand. For Figure 2E, the precipitated TRKB.wt or Y433F was incubated with tritiated imipramine (0-30μM) and the radioactive emission of the ligand was determined by scintillation (OptiPhase Supermix cocktail: #1200-439; MicroBeta2, Perkin-Elmer). The scintillation signal from blank wells was used as background, and the specific signal was then calculated by subtracting the values of blank wells from the values of the samples with matched concentration of the radioactive ligand.

TRKB [2] = target: T2, TRKB; experiment: In situ proximity ligation assay (PLA) in TRKB-expressing N2A cells; type: cell-based; parameters: expressed in transfected cells; host or cells: N2A; conditions: biotinylated fluoxetine 10 μM/15 min
Procedure: Proximity ligation assay was done with Duolink In Situ Red Starter Kit Mouse/Goat (#DUO92103, Sigma-Aldrich), following manufacturer’s instructions. […] Cells were fixed with PFA 4% for 15 min, washed, and incubated in Duolink blocking buffer for 1h at 37°C. Then, the coverslips were incubated with streptavidin-conjugated HRP (1:5000 in Duolink antibody diluent) for 45 min at room temperature. After washing twice in Duolink washing buffer A, samples were incubated overnight at 4°C with a mix of goat anti-TRKB (1:1000, #AF1494, R&D System) and mouse anti-HRP (1:1000, #200-3138-0100, Rockland Immunochemicals) diluted in Duolink antibody diluent. After washing in Duolink washing buffer A, samples were incubated for 1h at 37°C with a mix of minus and plus probes diluted 1:5 in Duolink antibody diluent. Then, ligation of probes with connector oligo was done by washing the samples in washing buffer A, and incubating for 30min at 37°C with ligase (25 U/ml) diluted in the Duolink ligation buffer. Amplification was done by washing the samples in the washing buffer A, and incubating for 100min at 37°C with polymerase (125 U/ml) diluted in the amplification buffer. Coverslips were washed in buffer B, then in buffer B diluted 1:100 in milliQ water, and mounted in Duolink in situ mounting medium with DAPI. All incubation steps were done in a humidified chamber. […]

TRKB:PLC-γ1 interaction = TRKB:PLC-γ1 interaction ELISA in cortical cells; type: cell-based, rat; conditions: pravastatin 1 μM/3 days
Procedure: The TRKB:pY (phosphorylated TRKB), TRKB:PLC-γ1, PLC-γ1:pTRKB.Y816 interactions and were determined by ELISA, based on the general method described in literature ([Antila et al., 2014]; [Fred et al., 2019]), with minor adjustments. Briefly, white 96-well plates (OptiPlate 96F-HB, Perkin Elmer) were coated with capturing anti-TRKB or PLC-γ1 antibody (1:1000) in carbonate buffer (pH = 9.8) overnight (ON) at 4°C. Following a blocking step with 2%BSA in TBS-T (2 h, RT), samples were incubated ON at 4°C. The incubation with antibody against pTRKB.Y816, PLC-γ1 or pY (1:2000, ON, 4°C) was followed by HRP-conjugated anti-Rb IgG (1:5000, 2h, RT) or HRP-conjugated streptavidin (1:10000, 2h, RT). Finally, the chemiluminescent signal generated by the reaction with ECL was analyzed in a plate reader (Varioskan Flash, Thermo Scientific).

E18 cortical cells = experiment: Cell viability (CellTiterGlo) of cortical cells; type: cell-based, rat; conditions: pravastatin 2 μM for 5 days
Procedure: The cell viability assay was performed using CellTiterGlo (#G7571; Promega) according to manufacturer’s instructions. Briefly, equal amounts of medium and the mixture of regents A and B were added to the E18 cortical cells (DIV8) cultivated in clear bottom 96-well plates and incubated for 40min. The luminescence was analyzed in a plate reader.

hippocampal cells = experiment: BDNF-induced neurite branching in hippocampal cells (Sholl analysis); type: cell-based, rat; conditions: pravastatin 1 μM/3 days, BDNF 10 ng/ml/3 days
Procedure: MG87.TRKB or primary cultured cortical cells were fixed with 4% paraformaldehyde in PBS, and unspecific binding sites were blocked with a blocking buffer (5% normal donkey serum, 1% Bovine serum albumin, 0.1% gelatin, 0.1% Triton X-100, 0.05% Tween-20 in PBS). The MG87.TRKB cells were stained with anti-GFP, while primary cultures were incubated with anti-actin. The fluorescence was obtained following incubation with secondary antibodies. The coverslips were mounted with Dako Fluorescence Mounting Medium (#S3023). Images were acquired with Zeiss LSM710 confocal microscope (63x oil objective).
For Sholl analysis of cultured hippocampal cells, confocal images were processed using FIJI ImageJ (NIH software), and the number of branches in the 80-μm range from the cell soma were counted using FIJI plugin.

mice = experiment: Object location memory (OLM) test; type: in vivo, mouse; conditions: wild-type mice, pravastatin co-treatment
Procedure: Object-location memory (OLM): this test was performed in a square arena (28cm side) with opaque walls containing cues (black stripes or spots). The adult male and female mice (18-22 weeks old) were placed for 3 consecutive days (15min per session) in the arena with two identical objects (table tennis balls glued to caps of 50ml Falcon tubes) in the same position throughout the sessions (pretest).

Sprague-Dawley rats = experiment: BDNF-induced LTP in dentate gyrus of anesthetized rats; type: in vivo, rat; conditions: pravastatin 10 mg/kg/day/ in drinking water
Procedure: In vivo electrophysiology. Intrahippocampal BDNF infusion was performed as described previously ([Messaoudi et al., 1998]). The experiments were carried out on 20 adult male Sprague-Dawley rats (15 weeks old, Janvier, France). Rats were housed in the animal facility for 1-week prior to the start of drug administration. […]
For electrophysiological experiments, rats were anesthetized with an intraperitoneal injection of urethane (U2500, Sigma-Aldrich) 1.5 g/kg body weight, positioned in a stereotaxic frame. The body temperature was constantly monitored and maintained at 37°C with an electric heating pad. Holes were drilled in the skull and a concentric bipolar stimulating electrode (Tip separation 500micrometers; SNEX 100; Rhodes Medical Instruments, Woodland Hills, CA) was positioned in the angular bundle for stimulation of the medial perforant path (7.9 mm posterior to bregma, 4.2 mm lateral to the midline, and 2.5 mm below the dura. […]
Responses were allowed to stabilize for 1 hour at a stimulation intensity that produced a population spike 30% of maximum. […] Evoked responses were recorded for 120 min post infusion. Recorded field potentials were amplified, filtered (0.1 Hz to 10 kHz), and digitized (25 kHz). Electrophysiological data was analyzed using Datawave Technologies Software company. […]

T1 sequence (P04629 33-796): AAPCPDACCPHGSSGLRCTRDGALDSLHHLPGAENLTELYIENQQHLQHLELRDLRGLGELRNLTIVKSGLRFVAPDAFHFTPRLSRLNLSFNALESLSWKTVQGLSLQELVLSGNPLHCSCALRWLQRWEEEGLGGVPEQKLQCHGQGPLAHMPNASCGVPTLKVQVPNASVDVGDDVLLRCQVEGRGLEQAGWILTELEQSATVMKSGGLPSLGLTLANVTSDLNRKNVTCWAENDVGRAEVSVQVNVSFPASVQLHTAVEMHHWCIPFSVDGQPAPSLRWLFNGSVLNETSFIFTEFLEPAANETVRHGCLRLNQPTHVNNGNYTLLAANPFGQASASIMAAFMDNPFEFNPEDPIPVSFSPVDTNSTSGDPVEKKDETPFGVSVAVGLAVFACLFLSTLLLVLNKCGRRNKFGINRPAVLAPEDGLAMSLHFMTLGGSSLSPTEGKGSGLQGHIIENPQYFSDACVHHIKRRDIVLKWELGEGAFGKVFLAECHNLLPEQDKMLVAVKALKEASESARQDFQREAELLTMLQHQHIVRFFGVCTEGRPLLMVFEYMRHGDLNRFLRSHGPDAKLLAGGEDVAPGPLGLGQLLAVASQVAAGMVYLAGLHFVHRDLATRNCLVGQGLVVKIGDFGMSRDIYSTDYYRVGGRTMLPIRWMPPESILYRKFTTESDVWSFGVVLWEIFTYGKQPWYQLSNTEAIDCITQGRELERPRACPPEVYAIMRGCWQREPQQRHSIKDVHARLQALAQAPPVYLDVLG

Structure (SMILES)	interaction of biotinylated fluoxetine with TRKA (TRKA)	Kd (TRKB [1]) [nM]	PLA signal between biotinylated FLX and TRKB (TRKB [2])	effect on BDNF-induced TRKB-PLC-γ1 interaction (TRKB:PLC-γ1 interaction)	neuronal survival (E18 cortical cells)	effect on BDNF-induced neurite branching (hippocampal cells)	effect on R,R-HNK-improved object location memory (mice)	effect on BDNF-induced increase in synaptic strength (LTP) (Sprague-Dawley rats)
CN(CCC(Oc1ccc(C(F)(F)F)cc1)c1ccccc1)C(=O)CCOCCOCCOCCOCCNC(=O)CCCC[C@@H]1SC[C@@H]2NC(=O)N[C@@H]21 (some centres unmarked) [biotinylated FLX]	negligible	2420	robust PLA signal	–	–	–	–	–
CC[C@H](C)C(=O)O[C@H]1C[C@H](O)C=C2C=C[C@H](C)[C@H](CC[C@@H](O)C[C@@H](O)CC(=O)O)[C@H]21 [pravastatin]	–	–	–	prevented	reduced neuronal survival	prevented	prevented	partially prevented
